pIC50: −log10 of the molar value.

Chain of recombinant mTOR (FLAG-tagged, residues 1362-2549) (P42345 1362-2549): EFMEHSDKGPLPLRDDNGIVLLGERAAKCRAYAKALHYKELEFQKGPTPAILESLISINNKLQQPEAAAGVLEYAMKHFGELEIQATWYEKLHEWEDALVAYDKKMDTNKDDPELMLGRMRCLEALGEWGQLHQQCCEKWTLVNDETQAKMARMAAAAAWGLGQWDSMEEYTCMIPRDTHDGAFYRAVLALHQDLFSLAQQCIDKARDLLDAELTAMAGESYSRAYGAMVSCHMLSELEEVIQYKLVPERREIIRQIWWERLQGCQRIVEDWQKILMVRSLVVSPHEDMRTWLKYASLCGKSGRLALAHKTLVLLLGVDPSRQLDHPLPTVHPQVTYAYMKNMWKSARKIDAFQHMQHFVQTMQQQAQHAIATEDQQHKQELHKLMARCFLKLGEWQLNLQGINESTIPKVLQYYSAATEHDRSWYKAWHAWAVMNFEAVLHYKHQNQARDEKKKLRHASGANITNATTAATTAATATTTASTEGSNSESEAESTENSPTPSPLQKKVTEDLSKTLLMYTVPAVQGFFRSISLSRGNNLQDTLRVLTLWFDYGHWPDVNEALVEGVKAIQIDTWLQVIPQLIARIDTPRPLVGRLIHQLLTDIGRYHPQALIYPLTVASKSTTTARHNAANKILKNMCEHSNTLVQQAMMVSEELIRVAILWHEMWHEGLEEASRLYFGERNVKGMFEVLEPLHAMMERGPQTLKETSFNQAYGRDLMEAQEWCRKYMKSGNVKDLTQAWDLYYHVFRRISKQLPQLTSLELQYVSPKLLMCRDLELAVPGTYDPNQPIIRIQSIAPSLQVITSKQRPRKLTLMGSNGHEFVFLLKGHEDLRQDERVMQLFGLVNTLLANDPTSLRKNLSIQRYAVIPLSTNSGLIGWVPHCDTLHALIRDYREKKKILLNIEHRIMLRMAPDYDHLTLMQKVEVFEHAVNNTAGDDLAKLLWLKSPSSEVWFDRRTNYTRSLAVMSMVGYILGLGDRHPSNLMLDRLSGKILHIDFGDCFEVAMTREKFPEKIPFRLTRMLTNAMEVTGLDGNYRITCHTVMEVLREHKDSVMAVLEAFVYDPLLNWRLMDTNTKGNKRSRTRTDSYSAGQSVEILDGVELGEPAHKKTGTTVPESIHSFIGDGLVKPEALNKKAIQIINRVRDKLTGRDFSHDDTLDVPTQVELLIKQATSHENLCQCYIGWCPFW

This experiment concerns the target recombinant mTOR (FLAG-tagged, residues 1362-2549) (Homo sapiens, UniProt P42345). Nature of the experiment: In vitro mTOR kinase assay (Test (a), AlphaScreen). Format: biochemical. The conditions noted are these: ATP 20 μM, read-out: Test (a): IC50 versus mTOR kinase. In a few lines: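 AlphaScreen read-out: a phospho-T389 p70 S6K antibody on acceptor beads captures the phosphorylated biotin-peptide on donor beads, with signal loss indicating inhibition.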
(In Alpha technology, singlet oxygen from a donor bead excites a nearby acceptor bead.)
In the case of `C[C@H]1COCCN1c1cc(CS(C)(=O)=O)nc(-c2cnc(NC(=O)NCCN(C)C)s2)n1` [Example 46g, 3-(2-dimethylaminoethyl)-1-[5-[4-[(3S)-3-methylmorpholin-4-yl]-6-(methylsulfonylmethyl)pyrimidin-2-yl]-1,3-thiazol-2-yl]urea], the pIC50 (commonly the negative decadic logarithm of the IC50, by convention in mol/L) is 6.14.
`C[C@H]1COCCN1c1cc(CN2CCOCC2)nc(-c2ccc(NC(=O)NC3CC3)cc2)n1` [Example 49f, 3-cyclopropyl-1-[4-[4-[(3S)-3-methylmorpholin-4-yl]-6-(morpholin-4-ylmethyl)pyrimidin-2-yl]phenyl]urea]: the pIC50 was 6.70.
`CS(=O)(=O)Cc1cc(N2CCOCC2)nc(-c2ccc(NC(=O)N3CCC(O)CC3)cc2)n1` [Example 45h, 4-hydroxy-N-[4-[4-(methylsulfonylmethyl)-6-morpholin-4-yl-pyrimidin-2-yl]phenyl]piperidine-1-carboxamide]: the pIC50 was 6.85.
`C[C@H]1COCCN1c1cc(CS(C)(=O)=O)nc(-c2ccc(NC(=O)NCc3ncc[nH]3)cc2)n1` [Example 35l, 3-(1H-imidazol-2-ylmethyl)-1-[4-[4-[(3S)-3-methylmorpholin-4-yl]-6-(methylsulfonylmethyl)pyrimidin-2-yl]phenyl]urea]: the pIC50 is 6.33.
As for `C[C@H]1COCCN1C(=O)c1cc(N2CCOC[C@@H]2C)nc(-c2ccc(NC(=O)NC3CC3)cc2)n1` [Example 36, 3-Cyclopropyl-1-[4-[4-[(3S)-3-methylmorpholine-4-carbonyl]-6-[(3S)-3-methylmorpholin-4-yl]pyrimidin-2-yl]phenyl]urea], the pIC50 is 7.21.
As for `CS(=O)(=O)Cc1cc(N2CCOCC2)nc(-c2ccc(NC(=O)NCCCO)cc2)n1` [Example 45q, 3-(3-hydroxypropyl)-1-[4-[4-(methylsulfonylmethyl)-6-morpholin-4-yl-pyrimidin-2-yl]phenyl]urea], the pIC50 was 7.49.
As to `CS(=O)(=O)Cc1cc(N2CCOCC2)nc(-c2ccc(NC(=O)Nc3ccccc3OC(F)F)cc2)n1` [Example 7e, 3-[2-(difluoromethoxy)phenyl]-1-[4-[4-(methylsulfonylmethyl)-6-morpholin-4-yl-pyrimidin-2-yl]phenyl]urea], the pIC50 is 5.59.
`CNC(=O)Nc1ccc(-c2nc(CS(=O)(=O)CC(N)=O)cc(N3CCOC[C@@H]3C)n2)cc1` [Example 26a, 2-[[2-[4-(methylcarbamoylamino)phenyl]-6-[(3S)-3-methylmorpholin-4-yl]pyrimidin-4-yl]methylsulfonyl]acetamide]: the pIC50 is 7.43.
`CS(=O)(=O)Cc1cc(N2CCOCC2)nc(-c2ccc(NC(=O)NC3CCOCC3)cc2)n1` [Example 45u, 1-[4-[4-(methylsulfonylmethyl)-6-morpholin-4-yl-pyrimidin-2-yl]phenyl]-3-(oxan-4-yl)urea]: the negative-log IC50 (pIC50) was 6.38.
For the compound `CS(=O)(=O)Cc1cc(N2CCOCC2)nc(-c2ccc(NC(=O)Nc3ccc(F)c(F)c3)cc2)n1` [Example 7k, 3-(3,4-difluorophenyl)-1-[4-[4-(methylsulfonylmethyl)-6-morpholin-4-yl-pyrimidin-2-yl]phenyl]urea], the pIC50 is 6.14.
With `C[C@H]1COCCN1c1cc(CS(C)(=O)=O)nc(-c2ccc(NC(=O)Nc3ccc(F)cc3)nc2)n1` [Example 1j, 3-(4-fluorophenyl)-1-[5-[4-[(3S)-3-methylmorpholin-4-yl]-6-(methylsulfonylmethyl)pyrimidin-2-yl]pyridin-2-yl]urea] the figure was 7.37.
For `CS(=O)(=O)Cc1cc(N2CCOCC2)nc(-c2ccc(NC(=O)Nc3ccc(F)c(Cl)c3)cc2)n1` [Example 7g, 3-(3-chloro-4-fluoro-phenyl)-1-[4-[4-(methylsulfonylmethyl)-6-morpholin-4-yl-pyrimidin-2-yl]phenyl]urea], the pIC50 was 5.89.
Turning to `CS(=O)(=O)Cc1cc(N2CCOCC2)nc(-c2ccc(NC(=O)N3CCC(S(C)(=O)=O)C3)cc2)n1` (centres unmarked) [Example 45n, 3-methylsulfonyl-N-[4-[4-(methylsulfonylmethyl)-6-morpholin-4-yl-pyrimidin-2-yl]phenyl]pyrrolidine-1-carboxamide], the pIC50 is 6.20.
As to `C[C@H]1COCCN1c1cc(CS(C)(=O)=O)nc(-c2ccc(NC(=O)NC(C)(C)C)cc2)n1` [Example 35f, 1-[4-[4-[(3S)-3-methylmorpholin-4-yl]-6-(methylsulfonylmethyl)pyrimidin-2-yl]phenyl]-3-tert-butyl-urea], the negative-log IC50 (pIC50) was 6.09.
For `CC(C)S(=O)(=O)Cc1cc(N2CCOC[C@@H]2C)nc(-c2ccc(NC(=O)N(C)C)cc2)n1` [Example 14, 1,1-Dimethyl-3-[4-[4-[(3S)-3-methylmorpholin-4-yl]-6-(propan-2-ylsulfonylmethyl)pyrimidin-2-yl]phenyl]urea], the pIC50 is 6.38.
Consider `C[C@H]1COCCN1c1cc(CS(=O)(=O)CCO)nc(-c2ccc(NC(=O)NC3CC3)cc2)n1` [Example 43d, 3-cyclopropyl-1-[4-[4-(2-hydroxyethylsulfonylmethyl)-6-[(3S)-3-methylmorpholin-4-yl]pyrimidin-2-yl]phenyl]urea], for which the pIC50 was 7.96.
`COCCNC(=O)Nc1ccc(-c2nc(CS(C)(=O)=O)cc(N3CCOC[C@@H]3C)n2)cc1F` [Example 4g, 3-[2-fluoro-4-[4-[(3S)-3-methylmorpholin-4-yl]-6-(methylsulfonylmethyl)pyrimidin-2-yl]phenyl]-1-(2-methoxyethyl)urea]: the pIC50 is 6.08.
With `COCCNC(=O)Nc1ccc(-c2nc(N3CCOCC3)cc(C(C)(C)S(C)(=O)=O)n2)cc1` [Example 21e, 3-(2-methoxyethyl)-1-[4-[4-(2-methylsulfonylpropan-2-yl)-6-morpholin-4-yl-pyrimidin-2-yl]phenyl]urea] the figure was 6.00; with `CN1CCN(CCNC(=O)Nc2ccc(-c3nc(CS(C)(=O)=O)cc(N4CCOCC4)n3)cc2)CC1` [Example 45w, 1-[2-(4-methylpiperazin-1-yl)ethyl]-3-[4-[4-(methylsulfonylmethyl)-6-morpholin-4-yl-pyrimidin-2-yl]phenyl]urea], 6.13; with `CS(=O)(=O)Cc1cc(N2CCOCC2)nc(-c2ccc(NC(=O)Nc3cccs3)cc2)n1` [Example 7r, 1-[4-[4-(methylsulfonylmethyl)-6-morpholin-4-yl-pyrimidin-2-yl]phenyl]-3-thiophen-2-yl-urea], 6.72.
With `CNC(=O)Nc1ccc(-c2nc(CS(=O)(=O)c3ccc(N)cc3)cc(N3CCOC[C@@H]3C)n2)cc1` [Example 33d, 1-[4-[4-[(4-aminophenyl)sulfonylmethyl]-6-[(3S)-3-methylmorpholin-4-yl]pyrimidin-2-yl]phenyl]-3-methyl-urea], the pIC50 was 9.51.
Consider `C[C@H]1COCCN1c1cc(CS(C)(=O)=O)nc(-c2ccc(NC(=O)Nc3ccc(F)cc3)cc2)n1` [Example 1e, 3-(4-fluorophenyl)-1-[4-[4-[(3S)-3-methylmorpholin-4-yl]-6-(methylsulfonylmethyl)pyrimidin-2-yl]phenyl]urea], for which the negative-log IC50 (pIC50) is 6.49.
Regarding `CNC(=O)Nc1ccc(-c2nc(CO)cc(N3CCOC[C@@H]3C)n2)cc1` [Example 18, 1-[4-[4-(Hydroxymethyl)-6-[(3S)-3-methylmorpholin-4-yl]pyrimidin-2-yl]phenyl]-3-methyl-urea], the pIC50 was 6.92.
Turning to `C[C@H]1COCCN1c1cc(C(C)(C)S(C)(=O)=O)nc(-c2ccc(NC(=O)Nc3ncccn3)cc2)n1` [Example 24u, 1-[4-[4-[(3S)-3-methylmorpholin-4-yl]-6-(2-methylsulfonylpropan-2-yl)pyrimidin-2-yl]phenyl]-3-pyrimidin-2-yl-urea], the pIC50 is 6.92.
For the compound `COCCN(C)C(=O)Nc1ccc(-c2nc(CS(C)(=O)=O)cc(N3CCOC[C@@H]3C)n2)cc1` [Example 2a, 1-(2-methoxyethyl)-1-methyl-3-[4-[4-[(3S)-3-methylmorpholin-4-yl]-6-(methylsulfonylmethyl)pyrimidin-2-yl]phenyl]urea], the pIC50 is 5.64.
Consider `CNC(=O)Nc1ncc(-c2nc(N3CCOC[C@@H]3C)cc(C(C)(C)S(C)(=O)=O)n2)s1` [Example 47, 3-Methyl-1-[5-[4-[(3S)-3-methylmorpholin-4-yl]-6-(2-methylsulfonylpropan-2-yl)pyrimidin-2-yl]-1,3-thiazol-2-yl]urea], for which the negative logarithm of the IC50 (pIC50) is 6.59.
Consider `C[C@H]1COCCN1c1cc(CS(C)(=O)=O)nc(-c2ccc(NC(=O)NCc3cnn(C)c3)cc2)n1` [Example 24g, 1-[4-[4-[(3S)-3-methylmorpholin-4-yl]-6-(methylsulfonylmethyl)pyrimidin-2-yl]phenyl]-3-[(1-methylpyrazol-4-yl)methyl]urea], for which the pIC50 is 6.51.
With `COCCNC(=O)Nc1ccc(-c2nc(CS(C)(=O)=O)cc(N3CCOC[C@@H]3C)n2)cc1OC` [Example 4e, 1-(2-methoxyethyl)-3-[2-methoxy-4-[4-[(3S)-3-methylmorpholin-4-yl]-6-(methylsulfonylmethyl)pyrimidin-2-yl]phenyl]urea] the figure was 6.22; with `CC(CO)NC(=O)Nc1ccc(-c2nc(CS(C)(=O)=O)cc(N3CCOCC3)n2)cc1` (centres unmarked) [Example 45t, 1-(1-hydroxypropan-2-yl)-3-[4-[4-(methylsulfonylmethyl)-6-morpholin-4-yl-pyrimidin-2-yl]phenyl]urea], 7.09; with `C[C@H]1COCCN1c1cc(CS(=O)(=O)C2CC2)nc(-c2ccc(NC(=O)NC3CC3)cc2)n1` [Example 55, 3-Cyclopropyl-1-[4-[4-(cyclopropylsulfonylmethyl)-6-[(3S)-3-methylmorpholin-4-yl]pyrimidin-2-yl]phenyl]urea], 7.21.
For `C[C@H]1COCCN1c1cc(CS(=O)(=O)c2ccccc2)nc(-c2ccc(NC(=O)Nc3ccccc3)cc2)n1` [Example 12, 1-[4-[4-(Benzenesulfonylmethyl)-6-[(3S)-3-methylmorpholin-4-yl]pyrimidin-2-yl]phenyl]-3-phenyl-urea], the pIC50 is 6.64.
With `C[C@H]1COCCN1c1cc(C(=O)NC2CC2)nc(-c2ccc(NC(=O)NC3CC3)cc2)n1` [Example 36a, N-cyclopropyl-2-[4-(cyclopropylcarbamoylamino)phenyl]-6-[(3S)-3-methylmorpholin-4-yl]pyrimidine-4-carboxamide] the figure was 5.54.

(Values after patent US7750003B2, “Compounds-943” (AstraZeneca AB, priority 2006, dated 2010).)
